Several values for one entry are separate records, joined by “and”; a condition that tells them apart may be missing. Identical values can stand only once.
Experiments:
vaccinia viruses = assay: Plaque assay of vaccinia virus pre-incubated with NAC on CV1 cells; format: cell-based; settings: pre-incubation with 3, 10, 30 mM NAC, assay variation ±9%
[1] = tested on: HBsAg (hepatitis-B virus surface antigen); assay: Enzyme immunoassay (Abbott Auszyme) of HBsAg in HepG2-2.2.15 supernatant treated with NAC; format: biochemical; settings: 50 mM NAC
Protocol: The cell culture supernatant of a HBV-producing cell line (HepG2-2.2.15 cells, Sells et al., 1984, Proc. Natl. Acad. U.S.A. 84:1005-1009) was separated from the cells and then the viral antigens (HBsAg, hepatitis-B virus “surface” antigen) of the viral envelope were identified by means of an enzyme immunoassay (EIA). In a parallel experimental assay, the cell culture supernatant was treated with NAC directly before the EIA was carried out. […] Since as is known the main antigenic domain of HBsAg is stabilized by numerous disulfide bridges, it can be inferred from this experiment that NAC effects a change in the three-dimensional structure on the virus surface, which is caused by a separation of disulfide bridges. These very viral surface structures are essential for the attachment of the virus to its host cell and thus for its infectiosity.

[2] = tested on: human immunodeficiency virus (HIV); assay: Syncytia formation of H9 cells infected with HIV virions pre-incubated with NAC; format: cell-based; settings: for Test positives p/4 (syncytia formation): virions pre-incubated with 0.09 M NAC for 2 h, 4 parallel assays
Protocol: (§1) In order to examine whether NAC influences the HIV infection of cells, HIV-permissive cells ([…]) were incubated together with HIV-positive cell culture supernatant and the syncytia formation taking place upon successful infection of the host cell was observed. The H9 cell line is a CD4+ T-cell line of human origin (Popovic et al., 1984, Science 224:497-500). The HI virions (viral titer of the original solution is 10^7 viruses/ml) were initially pre-incubated together with NAC at room temperature for two hours (final NAC concentration 0.09 M, dissolved in serum-free cell culture medium) and then mixed with cell culture medium in a decadic dilution series (10^−1 to 10^−5). The same was made analogously with the control without NAC addition. Thereafter, the thus pretreated virions (and the untreated control, respectively) were added to the H9 cell culture for two hours to enable the adsorption of the viruses. Then, the suspension was washed with NAC-free medium and 48-well cell culture plates were covered therewith. Pour parallel assays were carried out for each dilution series. The giant cell formation was observed microscopically over an observation period of 26 days and assessed on a scale from 0 (no syncytia detectable) to 3 (great number of syncytia). It can be seen in connection with the untreated control (FIG. 1) that the syncytia formation is delayed when the viral titer decreases. The degree of syncytia formation is thus directly proportional to the number of infectious viruses. While with a viral titer of 10^5 the syncytia formation starts within four days already, it is delayed by about 2 weeks when the original virus solution has been diluted 10,000 times.
The delay of giant cell formation, which is shown in FIG. 1, is due to a reduction of the number of infectious virions—because of a correlation between viral titer and the number of syncytia. It is in no case caused by an influence of the metabolism of the host cell. The reduced capability to form giant cells (FIG. 1) can be quantified as titer exponent n by observing the laws established by Spearmann-Kärber.
With a total number of 4 preparations per dilution series there is [formula]
Thus, nNAC=−2.5 follows for the titer exponent after NAC treatment. Since the dilution stage of the untreated control, where syncytia formation could no longer be observed, was not determined accurately in this experiment, the maximum value for this preparation, i.e., 10^−6 was assumed as a calculation basis. Correspondingly, the titer of the untreated control is 10^−5,5 or less. The titer after the NAC treatment is 10^−2,5.

HBsAg = HBsAg antigenicity of NAC-treated HBV-positive supernatant with or without dialysis; format: biochemical, hepatitis B virus; settings: 15 min incubation with NAC, dialysis against TNE buffer at 4° C. overnight versus not dialyzed
[3] = tested on: HBeAg (hepatitis-B virus e antigen); assay: Enzyme immunoassay (Abbott HBe EIA) of HBeAg in HepG2-2.2.15 supernatant treated with NAC; format: biochemical; settings: 50 mM NAC
[4] = tested on: human immunodeficiency virus (HIV); assay: p24-Ag test in cell culture medium of HIV-infected H9 cells, virions treated with NAC prior to infection; format: cell-based; settings: for p24-Ag content in the cell culture medium, extinction at 492 nm: day 26 after infection, NAC-treated virions, exclusion limit <0.093
Protocol: as §1
This reduction of the infectiosity titer could also be confirmed by means of the p24-Ag test. For this purpose, the cell culture medium was renewed four days prior to the end of the experiment and the p24-Ag content of the cell culture medium was quantified upon termination of the experiment (day 26) (TABLE I). The p24-Ag values of the untreated control were always clearly positive.

## CC(=O)N[C@@H](CS)C(=O)O [NAC, N-acetyl cysteine]
Vaccinia viruses
  reduction of the viral titer of the vaccinia virus suspension: up to 70%
[1]
  detection of HBsAg by EIA: not possible
[2]; 0.09 M NAC versus untreated control
  reduction of the viral titer, measured on the basis of syncytia formation capability: at least three decimal exponents
[2]; 0.09 M NAC, 2 h, room temperature, syncytia formation
  titer exponent n after NAC treatment (Spearmann-Kärber): −2.5
[2]; NAC-treated virions diluted by more than 100 times (viral titer <10^4), observation period of four weeks
  syncytia formation within the observation period: no longer possible to observe syncytia formation
[2]; class limit -1 (virus dilution 10^-1)
  Test positives p/4 (syncytia formation): 4/4
[2]; class limit -2 (virus dilution 10^-2)
  Test positives p/4 (syncytia formation): 1/4
[2]; class limit -3 (virus dilution 10^-3)
  Test positives p/4 (syncytia formation): 1/4
[2]; class limit -4 (virus dilution 10^-4)
  Test positives p/4 (syncytia formation): 2/4
[2]; class limit -5 (virus dilution 10^-5)
  Test positives p/4 (syncytia formation): 0/4
HBsAg
  effect of NAC on the viruses (HBsAg antigenicity) after removing NAC by dialysis: irreversible
[3]
  recognition of HBeAg by EIA: recognized unrestrictedly
[4]; from an HIV dilution factor of 1/100 on, day 26
  p24-Ag content in the cell culture medium versus untreated control: marked reduction
[4]; virus dilution 10^-1
  p24-Ag content in the cell culture medium, extinction at 492 nm: >2.0 O.D. 492 nm
[4]; virus dilution 10^-5
  p24-Ag content in the cell culture medium, extinction at 492 nm: 0.069 O.D. 492 nm and 0.04 O.D. 492 nm and 0.044 O.D. 492 nm

From US6426370B1, “Use of thiol compounds in viral inactivation” (priority 2000, dated 2002)
